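Where inhibition never reached the appropriate level, the endpoint shown equals the highest concentration tested. Otherwise, values were interpolated linearly from a five-concentration, 48-hour dose response in 96-well plates. GI50 = concentration required for 50% inhibition of growth.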 Active and inactive are the calls of the source. Rule as the data show it: active = GI50 up to about 1.1 µM and inactive = higher.
What was measured:
Assay in all cases: NCI-60 cell line screen, 48 h
EKVX = system: EKVX
HOP-92 = system: HOP-92
KM12 = system: KM12
LOX IMVI = system: LOX IMVI
M14 = system: M14
MCF7 = system: MCF7
MDA-MB-231 = system: MDA-MB-231
MDA-MB-435 = system: MDA-MB-435
NCI-H226 = system: NCI-H226
NCI-H23 = system: NCI-H23
NCI-H460 = system: NCI-H460
NCI-H522 = system: NCI-H522
OVCAR-3 = system: OVCAR-3
OVCAR-5 = system: OVCAR-5
SK-MEL-5 = system: SK-MEL-5
SN12C = system: SN12C
T47D = system: T47D
U-251 = system: U-251
HL-60 = system: HL-60
SR = system: SR

Measured: GI50

Nc1c(S(N)(=O)=O)cc(S(N)(=O)=O)cc1S(N)(=O)=O
inactive: EKVX > 100 µM | HOP-92 > 100 µM | KM12 > 100 µM | LOX IMVI > 100 µM | M14 > 100 µM | MCF7 > 100 µM | MDA-MB-231 > 100 µM | MDA-MB-435 > 100 µM | NCI-H226 > 100 µM | NCI-H23 > 100 µM | NCI-H460 > 100 µM | NCI-H522 > 100 µM | OVCAR-3 > 100 µM | OVCAR-5 > 100 µM | SK-MEL-5 > 100 µM | SN12C > 100 µM | T47D > 100 µM | U-251 > 100 µM

CCCNc1ncnc2c1ncn2C
inactive: EKVX > 100 µM | HL-60 32.9 µM | HOP-92 37.6 µM | KM12 > 100 µM | LOX IMVI 31 µM | M14 58.5 µM | MCF7 53.6 µM | MDA-MB-231 67.1 µM | MDA-MB-435 > 100 µM | NCI-H226 > 100 µM | NCI-H23 35.6 µM | NCI-H522 41.8 µM | OVCAR-3 58.5 µM | SK-MEL-5 > 100 µM | SN12C 27.4 µM | T47D 44.4 µM | U-251 > 100 µM

CCOC(=O)CCC(C(=O)OCC)n1nc2ccc(Nc3c(C)[n+]([O-])c4cc(F)c(OCC)cc4[n+]3[O-])cc2n1 (stereo not drawn)
inactive: EKVX 28.5 µM | HL-60 > 100 µM | HOP-92 21.4 µM | KM12 > 100 µM | LOX IMVI > 100 µM | M14 > 100 µM | MCF7 61.2 µM | MDA-MB-435 > 100 µM | NCI-H226 36.7 µM | NCI-H23 32.9 µM | NCI-H460 29.3 µM | NCI-H522 30.8 µM | OVCAR-3 > 100 µM | OVCAR-5 > 100 µM | SK-MEL-5 82.8 µM | SN12C 91.2 µM | SR > 100 µM | T47D 66.1 µM | U-251 23.6 µM

Cc1cc(N(CCC#N)CCC#N)ccc1C(/N=N/c1ccc([N+](=O)[O-])cc1)=N\NC(=O)c1cc(Cl)ccc1C(=O)c1ccccc1
inactive: EKVX 6.11 µM | KM12 9.1 µM | M14 17.5 µM | MCF7 4.95 µM | MDA-MB-231 11.2 µM | MDA-MB-435 22.6 µM | NCI-H226 10 µM | NCI-H23 13.3 µM | NCI-H460 6.1 µM | NCI-H522 1.87 µM | OVCAR-3 4.86 µM | OVCAR-5 26.1 µM | SK-MEL-5 12 µM | SN12C 19.3 µM | T47D 5.18 µM | U-251 13.3 µM

COc1ccc(C2c3cc4c(cc3C(O)C3CCC(=O)N23)OCO4)cc1 (stereo not drawn)
inactive: EKVX > 100 µM | HL-60 > 100 µM | HOP-92 > 100 µM | KM12 > 100 µM | LOX IMVI > 100 µM | M14 > 100 µM | MCF7 > 100 µM | MDA-MB-435 > 100 µM | NCI-H226 > 100 µM | NCI-H23 > 100 µM | NCI-H460 > 100 µM | NCI-H522 > 100 µM | OVCAR-3 > 100 µM | OVCAR-5 > 100 µM | SK-MEL-5 > 100 µM | SN12C > 100 µM | SR > 100 µM | T47D > 100 µM | U-251 > 100 µM

Nc1ncnc2c1ncn2C1CCC(CP(=O)(O)O)C1 (stereo not drawn)
inactive: EKVX > 100 µM | HL-60 > 100 µM | KM12 > 100 µM | LOX IMVI > 100 µM | M14 > 100 µM | MCF7 > 100 µM | MDA-MB-231 > 100 µM | MDA-MB-435 > 100 µM | NCI-H226 > 100 µM | NCI-H23 > 100 µM | NCI-H460 > 100 µM | OVCAR-3 > 100 µM | OVCAR-5 > 100 µM | SK-MEL-5 > 100 µM | SN12C > 100 µM | T47D > 100 µM | U-251 > 100 µM

CNc1ncnc2c1ncn2C1C=CC(COS(N)(=O)=O)C1 (stereo not drawn)
inactive: EKVX > 100 µM | HL-60 > 100 µM | HOP-92 > 100 µM | KM12 > 100 µM | LOX IMVI > 100 µM | M14 > 100 µM | MCF7 > 100 µM | MDA-MB-435 > 100 µM | NCI-H23 > 100 µM | NCI-H460 > 100 µM | NCI-H522 > 100 µM | OVCAR-3 > 100 µM | SK-MEL-5 > 100 µM | SN12C > 100 µM | SR > 100 µM | T47D > 100 µM | U-251 > 100 µM

CN(c1c(Cl)cccc1Cl)S(=O)(=O)c1ccccc1[N+](=O)[O-]
inactive: EKVX > 100 µM | HL-60 > 10 µM | KM12 > 100 µM | LOX IMVI > 100 µM | M14 > 100 µM | MCF7 > 100 µM | MDA-MB-435 > 100 µM | NCI-H226 > 100 µM | NCI-H23 > 100 µM | NCI-H460 > 100 µM | NCI-H522 > 100 µM | OVCAR-3 > 100 µM | OVCAR-5 > 100 µM | SN12C > 100 µM | SR > 100 µM | T47D > 100 µM | U-251 > 100 µM

O=C(NC1CCCCC1)N1CCNC1=S
inactive: EKVX 9.53 µM | HL-60 > 100 µM | HOP-92 > 100 µM | KM12 > 100 µM | LOX IMVI > 100 µM | M14 > 100 µM | MDA-MB-231 3.2 µM | MDA-MB-435 > 100 µM | NCI-H226 45.3 µM | NCI-H23 > 100 µM | NCI-H460 > 100 µM | NCI-H522 > 100 µM | OVCAR-3 > 100 µM | OVCAR-5 > 100 µM | SK-MEL-5 > 100 µM | SN12C > 100 µM | SR > 100 µM | T47D > 100 µM | U-251 1.91 µM

CC(=O)Nc1ccc(OC/C(N)=N/NC(=O)c2ccncc2)cc1
inactive: EKVX > 100 µM | HL-60 > 100 µM | HOP-92 > 100 µM | KM12 > 100 µM | LOX IMVI > 100 µM | M14 > 100 µM | MCF7 > 100 µM | MDA-MB-231 > 100 µM | MDA-MB-435 > 100 µM | NCI-H23 > 100 µM | NCI-H460 > 100 µM | NCI-H522 > 100 µM | OVCAR-3 > 100 µM | OVCAR-5 > 100 µM | SN12C > 100 µM | T47D > 100 µM | U-251 > 100 µM

N=C(/C=C/c1ccc(-c2cn3cc(/C=C/C(=N)N4CCOCC4)ccc3n2)cc1)N1CCOCC1
inactive: EKVX > 100 µM | HOP-92 > 100 µM | KM12 > 100 µM | M14 > 100 µM | MCF7 94 µM | MDA-MB-231 > 100 µM | MDA-MB-435 > 100 µM | NCI-H226 > 100 µM | NCI-H23 > 100 µM | NCI-H460 > 100 µM | NCI-H522 62.8 µM | OVCAR-3 > 100 µM | OVCAR-5 > 100 µM | SK-MEL-5 > 100 µM | SN12C > 100 µM | T47D > 100 µM | U-251 > 100 µM

Cc1cc2ccccc2c[n+]1CC(=O)CC([O-])(C(F)(F)F)C(F)(F)F
inactive: EKVX > 100 µM | HL-60 > 100 µM | HOP-92 58.1 µM | LOX IMVI > 100 µM | M14 > 100 µM | MDA-MB-231 > 100 µM | MDA-MB-435 > 100 µM | NCI-H226 > 100 µM | NCI-H23 87.5 µM | NCI-H460 > 100 µM | NCI-H522 85.1 µM | OVCAR-3 53.2 µM | OVCAR-5 > 100 µM | SK-MEL-5 50.7 µM | SN12C > 100 µM | SR > 100 µM | T47D > 100 µM | U-251 > 100 µM

O=C(Cn1c2ccc(Br)cc2c2nc3ccccc3nc21)N1CCOCC1
inactive: HOP-92 12.8 µM | KM12 > 100 µM | LOX IMVI 39.8 µM | M14 > 100 µM | MDA-MB-231 63.5 µM | MDA-MB-435 > 100 µM | NCI-H226 > 100 µM | NCI-H23 53 µM | NCI-H460 > 100 µM | OVCAR-3 > 100 µM | OVCAR-5 > 100 µM | SK-MEL-5 > 100 µM | SN12C > 100 µM | T47D 25.5 µM | U-251 > 100 µM

CC1=NN(c2nc(N)nc(CSc3cc(Cl)c(C)cc3S(N)(=O)=O)n2)C(C)(C)C1
inactive: EKVX > 10 µM | HL-60 > 10 µM | KM12 > 10 µM | LOX IMVI > 10 µM | M14 > 10 µM | MCF7 > 10 µM | MDA-MB-231 > 10 µM | MDA-MB-435 > 10 µM | NCI-H226 > 10 µM | NCI-H23 > 10 µM | NCI-H460 > 10 µM | NCI-H522 > 10 µM | OVCAR-3 > 10 µM | OVCAR-5 > 10 µM | SK-MEL-5 > 10 µM | SN12C > 10 µM | T47D > 10 µM | U-251 > 10 µM

Cc1ccc(S(N)(=O)=O)cc1 [P-TOLUENESULFONAMIDE]
inactive: EKVX > 1000 µM | HL-60 > 1000 µM | HOP-92 558 µM | KM12 > 1000 µM | LOX IMVI > 1000 µM | M14 > 1000 µM | MCF7 > 1000 µM | MDA-MB-435 > 1000 µM | NCI-H226 > 1000 µM | NCI-H23 > 1000 µM | NCI-H460 > 1000 µM | NCI-H522 > 1000 µM | OVCAR-3 > 1000 µM | OVCAR-5 > 1000 µM | SK-MEL-5 > 1000 µM | SN12C > 1000 µM | SR > 1000 µM | T47D > 1000 µM | U-251 > 1000 µM

— ChEMBL document CHEMBL1201862, “PubChem BioAssay data set” (2004)
